We go through 6 compounds from paper PMC6272185 (Molecules, 2015).

In brackets after ≈: the same amount, converted by molar mass. Read-outs that look alike come from different tables or passages of the source.

For data set [1], the system named is NO production by LPS-stimulated RAW 264.7 macrophages. The data set is described as follows: Inhibition of NO production by LPS-stimulated macrophages (Griess). Type of data set: cell-based, murine. Conditions: mean ± SD, n = 3. On the technique in general: Griess reagent forms a coloured azo dye with nitrite.
For data set [2], the system named is TNF-α production by LPS-stimulated RAW 264.7 macrophages. The data set is described as follows: Inhibition of TNF-α production by LPS-stimulated macrophages (ELISA). Conditions: for IC50: Mus musculus, read-out: IC50 TNF-α. Type of data set: cell-based, murine. In general terms: In an ELISA, binding on a coated surface is turned into a signal by an enzyme label.

Data set [3] in a line: Macrophage cytotoxicity, LDH release assay. The format is cell-based, murine. Conditions: mouse, RAW 264.7 macrophages stimulated with LPS; LPS-stimulated RAW 264.7, LDH release; mean ± SD, n = 3. In general terms: Release of lactate dehydrogenase indicates damage to the cell membrane.
Protocol: (§5) Cytotoxic effects of chalcone samples on RAW 264.7 cell viability in cultures stimulated with LPS were determined using the LDH (lactate dehydrogenase) release assay as previously described [58]. Cytoplasmic enzyme LDH release into cell culture supernatants was detected using a commercial LDH kit (Doles, GO, Brazil). Cell death was expressed as percentage of LDH release, which was calculated using the following formula: percentage of LDH release = 100 × (test LDH release − spontaneous release)/(maximum release − spontaneous release). The maximum release was determined following dissolution of cell monolayers using 1% (vol/vol) Triton X-100. The spontaneous release was determined in supernatants from cultures incubated in the presence of LPS and DMSO, used as a solvent for chalcone samples.
Data set [4] concerns M. bovis BCG. Put plainly: microbe, parasite or virus in culture. Type of data set: cell-based, Mycobacterium bovis BCG. The settings on record: for MIC50 / MIC90: Mycobacterium tuberculosis variant bovis BCG, BCG, 168 h; for MIC50: read-out: MIC50 M. bovis BCG; for MIC90: read-out: MIC90 M. bovis BCG.
The subject of data set [5] is IL-1β production by LPS-stimulated RAW 264.7 macrophages. The data set is described as follows: Inhibition of IL-1β production by LPS-stimulated macrophages (ELISA). The format is cell-based, murine. The settings on record: for inhibition of IL-1β: LPS-stimulated RAW 264.7; for IC50: Mus musculus, RAW264.7, 24 h, read-out: IC50 IL-1β. As for the experimental part: (§1) Murine RAW 264.7 macrophage cell line (American Type Culture Collection, Manassas, VA, USA), was cultured in Dulbecco’s modified Eagle’s medium (DMEM-F12) supplemented with 10% Fetal Bovine Serum (FBS) and gentamicin (50 µg/mL) in 5% CO2 atmosphere at 37 °C. For experiments, the cells were seeded in 96-well plates (1 × 10^5 cells/well) and incubated for 24 h at 37 °C. For macrophage stimulation, the cell cultures were treated with LPS (1 µg/mL) and incubated for additional 24 h in the presence or absence of the chalcone samples (samples 1–41) that were used at concentrations of 100, 20, 4 and 0.8 µg/mL. In some experiments, a nitric oxide (NO) inhibitor, L-NMMA (20 μg/mL), was used as a positive control of NO inhibition, and a non-steroidal anti-inflammatory drug indomethacin, known to inhibit production of prostaglandins, was used as a positive control of PGE2 inhibition.
(§2) The frozen culture supernatants samples were thawed and immediately analyzed using commercially available enzyme-linked immunosorbent assay (ELISA) kits to measure TNF-α, IL-1β (BD Biosciences) and PGE2 (R&D Systems, Minneapolis, MN, USA), according to the manufacturer’s instructions. Standard curves for each mediator were generated using reference cytokine concentrations supplied by the manufacturer. Nitric oxide (NO) generation was assessed by the Griess method to measure nitrites, which are stable breakdown NO products.

The test system of data set [6] is PGE2 production by LPS-stimulated RAW 264.7 macrophages. Put plainly: Inhibition of PGE2 production by LPS-stimulated macrophages (ELISA). The format is cell-based, murine. The settings on record: Mus musculus, RAW264.7, 24 h, read-out: IC50 PGE2. The protocol: as §1, §2
The subject of data set [7] is iNOS expression in RAW 264.7 macrophages. The data set is described as follows: iNOS expression by western blot in LPS-stimulated macrophages. Type of data set: cell-based, murine. The settings on record: 20 µg/mL, LPS 1 µg/mL, 24 h. As for the experimental part: (§3) RAW 264.7 macrophages were plated in Petri dishes (2 × 10^7 cells·mL^−1) and incubated for 24 h at 37 °C in 5% CO2 atmosphere. […] The resulted cellular monolayers were washed with PBS 1×, scraped and resuspended in PBS 1×, transferred and centrifuged to obtain cell pellets. The cells were lysed in buffer (10% SDS, 20% glycerol, 5% 2-mercaptoethanol, 2% bromophenol blue and 1 M Tris HCl, pH 6.8, containing protease inhibitors). Protein concentrations were estimated by Bradford method. For western blot analysis, cellular extract samples (60 µg) were submitted to 10% SDS–polyacrylamide gel electrophoresis under […] conditions and transferred to nitrocellulose membranes (Amersham Pharmacia Biotech, Uppsala, Sweden). After blocking with PBS-T (0.5% Tween-20) containing 2.5% (w/v) bovine serum albumin, the membranes were incubated with antibodies against iNOS (1:1000) and COX-2 (1:500) for 1 h at room temperature. After incubation period, the membranes were washed followed by treatment with horseradish peroxidase-conjugated secondary antibody. The resulting membranes were developed using diaminobenzidine/H2O2 as a substrate for peroxidase. In all electrophoresis experiments, a protein standard ladder (Full Range Rainbow-GE Healthcare, Piscataway, NJ, USA) was used to estimate proteins molecular size. Protein bands densitometric analysis was performed using ImageJ software for Windows (NIH, Bethesda, MD, USA). The value for stimulated condition (LPS- treated cells) was set as 1 and other conditions were recalculated correspondingly to allow ratio comparisons.

The subject of data set [8] is COX-2 expression in RAW 264.7 macrophages. Put plainly: COX-2 expression by western blot in LPS-stimulated macrophages. Type of data set: cell-based, murine. Conditions: 20 µg/mL, LPS 1 µg/mL, 24 h. As for the experimental part: as §3
Data set [9] deals with M. tuberculosis H37Rv. The data set is described as follows: microbe, parasite or virus in culture. The settings on record: for MIC90 / MIC50: Mycobacterium tuberculosis. The format is cell-based, Mycobacterium tuberculosis.
Data set [10] has as its system M. tuberculosis M299. Put plainly: microbe, parasite or virus in culture. Conditions: Mycobacterium tuberculosis, M299, 120 h. Type of data set: cell-based, Mycobacterium tuberculosis.
The subject of data set [11] is M. tuberculosis strain H37Rv in RAW 264.7 macrophages. Put plainly: Intracellular growth of M. tuberculosis H37Rv in infected macrophages (CFU). Type of data set: cell-based, Mycobacterium tuberculosis. The settings on record: infected RAW 264.7, MOI 1:1, 4 days, Figure 3C; for MIC50: Mycobacterium tuberculosis, H37RV, 96 h. As for the experimental part:
(§4) RAW 264.7 macrophages were plated (1 × 10^5 cells/well) in antibiotic-free DMEM-F12 medium supplemented with 10% fetal bovine serum and incubated for 24 h. Prior to infection, mycobacterial suspensions were sonicated for 1 minute to disperse clumps and optical densities were adjusted to 0.1. The macrophage cultures were infected at a MOI of 1:1 (macrophage: bacterium). Phagocytosis was allowed to progress for 3 h. After 3 h, extracellular mycobacteria were removed by washing with PBS 1X and the infected cell monolayers were treated for 4 days with chalcone samples or rifampicin. Macrophage viability was monitored by LDH assay and was over 80% in all experiments. On day 4 after infection, cells were lysed cells with 1% saponin to release intracellular bacteria. Lysate aliquots were diluted 10-fold in PBS, plated in triplicates on 7H10 agar plates and incubated at 37 °C. After 21 days, total CFU were determined.

Data set [12] concerns RAW 264.7 macrophages infected with M. tuberculosis H37Rv. The data set is described as follows: Toxicity for infected macrophages, LDH assay. The format is cell-based, murine. Conditions: Mus musculus, RAW264.7, 96 h; infected RAW 264.7, 4 days treatment; Figure 3D. The protocol:
Cytotoxic effects of chalcone samples on RAW 264.7 cell viability in cultures stimulated with LPS were determined using the LDH (lactate dehydrogenase) release assay as previously described. Cytoplasmic enzyme LDH release into cell culture supernatants was detected using a commercial LDH kit (Doles, GO, Brazil). Cell death was expressed as percentage of LDH release, which was calculated using the following formula: percentage of LDH release = 100 × (test LDH release − spontaneous release)/(maximum release − spontaneous release). The maximum release was determined following dissolution of cell monolayers using 1% (vol/vol) Triton X-100. The spontaneous release was determined in supernatants from cultures incubated in the presence of LPS and DMSO, used as a solvent for chalcone samples.
as §4

Data set [13] concerns RAW 264.7 macrophages. Put plainly: Macrophage cytotoxicity, LDH release assay. Type of data set: cell-based, murine. Conditions: LDH release.
Protocol: as §5
Setting [14] is: Mus musculus, RAW264.7, 24 h, LPS (1 µg/mL)-stimulated RAW 264.7, 24 h, read-out: IC50 NO.
Where [15] appears, read: RAW264.7, LPS (1 µg/mL)-stimulated RAW 264.7, 24 h, mean ± SD, n = 3.
The mark [16] stands for this setting: H37RV, 120 h, read-out: MIC50 M. tuberculosis H37Rv.
Where [17] appears, read: Table 5, same values as M. tuberculosis H37Rv in Table 3, read-out: MIC50.

Take `O=C(/C=C/c1ccc(Cl)cc1)c1ccccc1` [Chalcone 3]: the IC50 in [1] (setting [14]) was determined as 31.9 ± 4.6 µM; in [2] (setting [15]) it was 60.5 ± 4.7 µM; in data set [3] it was 400 ± 4.9 µM; in data set [5], 46.6 ± 4.6 µM; in data set [6], 19.9 ± 2.6 µM; in data set [12] it was 307 ± 5.1 µM. In addition, the MIC50 is 20.7 ± 6.4 µM (≈ 5.02 µg/mL) in data set [4]; 13 ± 3.3 µM (≈ 3.16 µg/mL) in [9] (setting [16]); 13 ± 3.3 µM (≈ 3.16 µg/mL) in data set [9] (setting [17]); 18.4 ± 3.9 µM (≈ 4.46 µg/mL) in data set [10]; 12.3 ± 1 µM (≈ 2.99 µg/mL) in [11]. For the same compound, the MIC90 in data set [4] came out at 170 ± 5.4 µM (≈ 41.2 µg/mL); in data set [9] (H37RV, 120 h), 372.7 ± 3.6 µM (≈ 90.5 µg/mL); in data set [10], 373.9 ± 1.4 µM (≈ 90.7 µg/mL). Besides, the “inhibition of IL-1β” value in data set [5] was “potent inhibitors”. Also, the “inhibition of iNOS expression” value in data set [7] is “almost completely inhibit”. In data set [8], the “abrogation of COX-2 expression” value is given as “most potent in abrogation”.
Consider `O=C(/C=C/c1ccc2c(c1)OCO2)c1ccccc1` [Chalcone 5], for which, in data set [2] (LPS-stimulated RAW 264.7), the “inhibition of TNF-α” value was “strongly inhibit”. For the same compound, the IC50 was 48.1 ± 7.6 µM in data set [2] (setting [15]); greater than 396 µM in data set [3]; 57.9 ± 4.9 µM in data set [5]; 23.1 ± 2.4 µM in data set [6]; greater than 396 µM in data set [12]. Moreover, the MIC50 was 14.5 ± 6.1 µM (≈ 3.66 µg/mL) in data set [4]; 12.7 ± 1.9 µM (≈ 3.2 µg/mL) in data set [9] (setting [16]); 12.7 ± 1.9 µM (≈ 3.2 µg/mL) in [9] (setting [17]); 11.7 ± 3.4 µM (≈ 2.95 µg/mL) in [10]; 3.8 ± 0.1 µM (≈ 0.959 µg/mL) in [11]. Further, the MIC90 in [4] came to 75.3 ± 8.4 µM (≈ 19 µg/mL); in [9] (H37RV, 120 h), 303 ± 5.4 µM (≈ 76.5 µg/mL); in data set [10], 289.6 ± 0.7 µM (≈ 73.1 µg/mL). Further, in data set [4] (culture, 7 days, MTT), the “MIC90 M. bovis BCG” value is on record as 75.3 ± 8.4 µM (≈ 19 µg/mL). Also, the “inhibition of IL-1β” value in data set [5] is listed as “potent inhibitors”. For the same compound, the “inhibition of iNOS expression” value in data set [7] is “almost completely inhibit”. The “abrogation of COX-2 expression” value in data set [8] is “most potent in abrogation”. Also, the “MIC90 M. tuberculosis H37Rv” value in data set [9] was 303.2 ± 5.4 µM (≈ 76.5 µg/mL). The “MIC50 intracellular M. tuberculosis H37Rv” value in data set [11] was determined as 3.8 ± 0.1 µM (≈ 0.959 µg/mL).
As for `CN(C)c1ccc(/C=C/C(=O)c2ccc(Br)cc2)cc1` [Chalcone 11], the results for the IC50 in data set [1] (setting [14]), in [2] (setting [15]) and in data set [3] were 41.3 ± 3.5 µM, greater than 303 µM and 132 ± 2.9 µM, respectively. The “cytotoxicity profile” value in data set [13] is “worst cytotoxicity profiles”. The MIC50 in data set [4] was 67.8 ± 3.8 µM (≈ 22.4 µg/mL). Further, the MIC90 in data set [4] was determined as 242 ± 2.6 µM (≈ 79.9 µg/mL).
On to `COc1ccc(/C=C/C(=O)c2ccc(OC)cc2)cc1` [Chalcone 29], for which the IC50 in [1] (LPS (1 µg/mL)-stimulated RAW 264.7, 24 h, read-out: IC50 NO) was 13.1 ± 4.2 µM; in data set [1] (Mus musculus, RAW264.7, 24 h, read-out: IC50 NO, LPS (1 µg/mL)-stimulated RAW 264.7, 24 h) it was less than 21 µM; in data set [2] (setting [15]) it was greater than 373 µM; in data set [3] it was 93.9 ± 4.9 µM. Further, in [13], the “cytotoxicity profile” value was “worst cytotoxicity profiles”. Besides, in data set [4], the MIC50 is 32.5 ± 5.4 µM (≈ 8.72 µg/mL). For the same compound, the MIC90 in data set [4] was 339.5 ± 3.2 µM (≈ 91.1 µg/mL).
On to `COc1ccc(C(=O)/C=C/c2ccccc2Cl)cc1` [Chalcone 30], for which the IC50 in [1] (setting [14]) was 23.9 ± 4.8 µM; in data set [2] (setting [15]) it was greater than 367 µM; in [3] it was 100 ± 5.1 µM. Moreover, the “cytotoxicity profile” value in data set [13] is given as “worst cytotoxicity profiles”. The MIC50 in data set [4] was 37.8 ± 6.4 µM (≈ 10.3 µg/mL). For the same compound, in data set [4], the MIC90 worked out at 329 ± 3.6 µM (≈ 89.6 µg/mL).
Consider `O=C(/C=C/c1ccccc1)c1ccccc1Cl` [Chalcone 31], for which the IC50 in data set [2] (RAW264.7, 24 h) was greater than 412 µM; in [3], 267 ± 4.5 µM; in data set [5] it was greater than 412 µM; in [6], 10.2 ± 0.5 µM. Moreover, in data set [4], the MIC50 came to 90.9 ± 5.5 µM (≈ 22.1 µg/mL). For the same compound, in data set [4], the MIC90 amounted to 330 ± 4.2 µM (≈ 80.1 µg/mL). Further, the “inhibition of iNOS expression” value in data set [7] was “almost completely inhibit”. For the same compound, the “abrogation of COX-2 expression” value in [8] is “most potent in abrogation”.
